In article PMC5584254, “Identification of novel small molecule Beclin 1 mimetics activating autophagy” (Oncotarget, 2017):

Experiments:
DU145 = assay: MTT-based cytotoxicity assay, DU145; settings: Homo sapiens, DU-145, averages of at least two independent experiments, read-out: Cytotoxicity in different cell lines (IC50, μM) DU145
From the text: (§1) Human prostate cancer cell lines PC-3 and DU145, were purchased from American Type Culture Collection (ATCC) and used within 50 passages. PC-3a is a derivative of PC-3 that is resistant to chemo/radiotherapy, established in our lab and confirmed by genotyping. All cells were maintained in DMEM (Mediatech, Manassas, VA) supplemented with 10% fetal bovine serum (FBS) (Sigma-Aldrich, St. Louis, MO), 1% Glutamine (Mediatech, Manassas, VA), 1% antibiotics (Mediatech, Manassas, VA). Compounds for primary FP-based HTS screening were from Prestwick, Microsource, University of Kansas Center of Excellence in Chemical Methodologies & Library Development (KU CMLD, Lawrence, KS), and Chembridge libraries. Compounds for MTT and SPR validation experiment were purchased from Microsource (Gaylordsville, CT) and Hit2lead Company (San Diego, CA). Acridine analogues, compound 1–6, were from our in-house library (provided by Specialized Chemistry Center, University of Kansas, Lawrence, KS); compound 7–17 were synthesized as described in supplementary information. (–)-Gossypol was isolated from racemic gossypol as we previously described. ABT-263 and DMSO were purchased from Sigma. MTT-based cytotoxicity assay and western blot analysis was carried out according to our previous publications. The primary antibodies used were LC3B (#2775) (Cell signaling Technology, Danvers, MA) and β-actin (A5441) (Sigma).

PC-3a = assay: MTT-based cytotoxicity assay, PC-3a; settings: Homo sapiens, averages of at least two independent experiments, read-out: Cytotoxicity in different cell lines (IC50, μM) PC-3a
From the text: as §1

PC-3 = assay: MTT-based cytotoxicity assay, PC-3; settings: Homo sapiens, averages of at least two independent experiments, read-out: Cytotoxicity in different cell lines (IC50, μM) PC-3
From the text: as §1

[1] = system: DU145, PC-3a and PC-3 prostate cancer cell lines; assay: MTT-based cytotoxicity assay, all three prostate cancer cell lines; set-up: species or system Human; settings: for IC50: Homo sapiens, DU-145, MTT, DU145, PC-3a and PC-3, read-out: cytotoxicity IC50, stated for all three cell lines together
From the text: We also tested the cytotoxicity of the 17 compounds in human prostate cancer cell lines by MTT assay (Table 1).
as §1, with “PC-3a is a derivative of PC-3 that is resistant to chemo/radiotherapy, established in our lab and confirmed by genotyping.” left out, “Acridine analogues, compound 1–6, were from our in-house library (provided by Specialized Chemistry Center, University of Kansas, Lawrence, KS); compound 7–17 were synthesized as described in supplementary information.” left out

Bcl-xL protein = molecular target: T1, Bcl-xL protein (Homo sapiens, UniProt Q07817); assay: Surface plasmon resonance assay, immobilized Bcl-xL; format: binding; settings: SPR; 10 μM compound; Bcl-xL immobilized 10000 RU
T1 construct: made in house
Protocol: The surface plasmon resonance experiments were performed using a Biacore 3000 (GE Healthcare Pittsburgh, PA) equipped with a research-grade CM5 sensor chip. The ligand (Bcl-xL) was immobilized using amine-coupling chemistry. The surfaces of flow cells on a Biacore sensor chip CM5 were activated for 7 min with a 1:1 mixture of 0.1 M NHS (N-hydroxysuccinimide) and 0.1 M EDC (3-(N,N-dimethylamino) propyl-N-ethylcarbodiimide) at a flow rate of 5 μL/min. The ligand (Bcl-xL) at a concentration of 180 μg/mL in 10 mM sodium acetate, pH 4.5, was immobilized at a density of about 10000 RU on flow cell 2; the ligand (SUMO-Bcl-2, 37.5 kDa, > 90% pure based on SDS–PAGE) at a concentration of 44 μg/ml in 10 mM sodium acetate, pH 4.5, was immobilized at a density of 10000 RU on flow cell 3; flow cell 1 was left blank to serve as a reference surface. All the surfaces were blocked with a 7 min injection of 1 M ethanolamine, pH 8.0.
For kinetic analysis, a concentration series of analyte were injected over the flow cells at a flow rate of 60 μL/min at 20 °C. The complex was allowed to associate and dissociate for 120 and 180 s, respectively. For binding studies, analyte (or test compound) was injected over the two flow cells in duplicate at indicated concentration at a flow rate of 60 μL/min at 20 °C. The running buffer consisted of 20 mM HEPES, 150 mM NaCl, 3 mM EDTA, 1 mM DTT, 0.05% P20, 5% DMSO, pH 7.4. The complex was allowed to associate and dissociate for 120 and 180 s, respectively. The buffer samples containing a range of 4–6% DMSO were injected at the beginning, used for solvent correction. The surfaces were regenerated between binding cycles with a 5 s injection of 5 mM NaOH for compounds and 10 mM Glycine pH 2.5 for 20-mer.
All measurements were taken with flow cell 1 as a reference (i.e. sensorgram depicts “2–1 correction”) and corrected for DMSO bulk differences via the calibration curves. To obtain kinetic rate constants (Ka and Kd), corrected response data were fit to a simple 1:1 interaction model using local fit (includes correction for mass transport limitations) available within Biaevaluation 3.1 software or Scrubber2 software. The equilibrium dissociation constant (KD) was determined by Kd/Ka.

[2] = molecular target: T2, Bcl-xL-Beclin 1 20-mer complex (Homo sapiens, UniProt Q07817); assay: FP competitive binding assay (disruption of Bcl-xL-20-mer complex); settings: 50 nM 20-mer, 2 μM Bcl-xL
T2 construct: made in house
Protocol: Figure 1 FP-based HTS for Beclin 1 mimetics (A) Schematic presentation of the Beclin 1 protein and sequences of five synthetic peptides modified from Beclin 1 BH3 peptide. Diagram of human Beclin 1 protein with different domains is shown in the bottom. BH3 domain is necessary and sufficient for interaction with Bcl-2/Bcl-xL. Amino acids in red are the critical residues for the binding. (B) Five fluorescein-labeled Beclin 1 BH3 peptides were tested for their binding ability to Bcl-xL protein in FP assay. Fluorescein-labeled Bak BH3 peptide was used as a positive control. Bcl-xL protein was titrated to a solution of 50 nM peptides. (C) Competitive binding assay with positive controls, ABT-263 and (–)-gossypol ((–)G). […] (D–E) HTS was performed with ~50000 compounds from Prestwick, Microsource, CMLD and Chembridge libraries. The four libraries were divided into two groups and screened separately. Compounds activity (percent of inhibition) of first screen (D) and second screen (E) were shown with Z′ value indicated on top. Plate median + 3SD was used as a threshold to determine the initial hits.
Bcl-xL protein was immobilized on the sensor chip with 10000 RU.
All N′-fluorescein-labeled peptides were purchased from Kansas State University (Manhattan, KS). […] 16mer Bak ([…]) sequence was from published literature. Bcl-xL protein (25 kDa, > 90% pure based on SDS–PAGE) was expressed and purified in Protein Product Group, University of Kansas. FP assays were carried out as described in our previous publication with some modified. […] Then, fluorescein-labeled peptide was added to each well with a final concentration of 50 nM and incubated at room temperature for 30 min. Anisotropy measurements were taken at room temperature using a BioTek Synergy H4 plate reader (Biotek, Winooski, VT) following the protocol recommended by the manufacture. The Kd was estimated by nonlinear regression to a one-site binding model using GraphPad Prism 5.0 (GraphPad, San Diego, CA). […] Compound solvent DMSO only was used as a negative control in the competition assay. After 2 h incubation, the plate was read and polarization was calculated.

Bcl-xL-Beclin 1 complex [3] = molecular target: T3, Bcl-xL-Beclin 1 complex (Homo sapiens, UniProt Q07817); assay: FP-based high-throughput screening, primary screen; format: binding; settings: first screen; 40 μM compound, 2.5 μM Bcl-xL, 400 nM 20-mer
T3 construct: made in house
From the text: Next, we optimized the FP competitive binding assay in a 384-well microplate format and carried out a small-scale HTS using a small library, which contains 6580 compounds from Prestwick, Microsource and our in-house CMLD library. Then, the FP assay was optimized and applied in screening the larger Chembridge library consisting of 43736 compounds. HTS cascades are shown in Supplementary Figure 1A–1B. […] All chemical structures can be found on the PubChem website (http://pubchem.ncbi.nlm.nih.gov/).
(§2) Then the plates were read by Envision (Perkin Elmer, Waltham, MA). […] The hits were selected from library stocks and reconfirmed in a concentration response FP assay (6 doses ranging from 5 μM to 160 μM or 8 doses ranging from 0.5 μM to 60 μM).

Bcl-xL-Beclin 1 complex [4] = molecular target: T3, Bcl-xL-Beclin 1 complex; assay: Concentration response FP reconfirmation of HTS hits; format: binding; settings: hits of first screen
Protocol: as §2

T1 sequence (Q07817 whole entry): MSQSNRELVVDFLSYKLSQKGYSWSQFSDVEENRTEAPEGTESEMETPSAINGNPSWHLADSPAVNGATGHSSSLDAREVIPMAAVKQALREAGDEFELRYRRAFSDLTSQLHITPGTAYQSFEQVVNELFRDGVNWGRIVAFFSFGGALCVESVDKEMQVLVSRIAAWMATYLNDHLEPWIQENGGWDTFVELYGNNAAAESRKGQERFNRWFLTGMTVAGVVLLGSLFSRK
T3 sequence (Q07817 whole entry, one chain of several): as the sequence (Q07817 whole entry) above
T2 sequence (Q07817 whole entry, one chain of several): as the sequence (Q07817 whole entry) above

SMILES	IC50 (DU145) [µM]	IC50 (PC-3a) [µM]	IC50 (PC-3) [µM]	other results
COc1ccc2nc3cc(Cl)ccc3c(Oc3ccccc3)c2c1 [Compound 10]	77.7 ± 24.2	36.1 ± 8.23	14.1 ± 0.71	
COc1cc(Br)c(CCNc2c3ccccc3nc3ccccc23)cc1OC [Compound 4]	6.33 ± 0.32	4.37 ± 0.68	4.43 ± 0.46	
COc1ccc2nc3ccccc3c(-c3ccc([N+](=O)[O-])cc3)c2c1 [Compound 11]	> 100	> 100	> 100	IC50 [1]: > 100 µM; binding level to Bcl-xL protein in SPR (Bcl-xL protein): almost no binding
Nc1c2ccccc2nc2ccccc12 [Compound 5]	2.78 ± 0.79	0.74 ± 0.45	0.79 ± 0.07	IC50 [1]: 0.5 to 5 µM; fold difference in IC50 value, PC-3 and PC-3a versus DU145 ([1]; higher cytotoxicity in PC-3 and PC-3a than in DU145): 3–5 fold
CN(CCc1ccc(O)c(O)c1)c1c2ccccc2nc2ccccc12 [Compound 2]	47 ± 7.39	29.2 ± 11.2	38.7 ± 5.46	
COc1ccc2nc3ccccc3c(-c3ccncc3)c2c1 [Compound 12]	45.4 ± 8.18	16.4 ± 2.56	21.6 ± 2.24	
CC1(C)CCC(c2ccc(Cl)cc2)=C(CN2CCN(c3ccc(C(=O)NS(=O)(=O)c4ccc(N[C@H](CCN5CCOCC5)CSc5ccccc5)c(S(=O)(=O)C(F)(F)F)c4)cc3)CC2)C1 [ABT-263]				competitive displacement of fluorescent 20-mer [2]: capable of freeing out fluorescent 20mer
O=C(CSc1nc(=O)c2ccccc2[nH]1)c1ccc(O)c(O)c1 [Compound 6]	> 100	> 100	> 100	IC50 [1]: > 100 µM; binding level to Bcl-xL protein in SPR (Bcl-xL protein): almost no binding
COc1ccc2nc3cc(Cl)ccc3c(-c3ccncc3)c2c1 [Compound 13]	57 ± 14.5	53.9 ± 3.66	52.4 ± 10.4	
COc1ccc(CCN(C)c2c3ccccc3nc3ccccc23)cc1OC [Compound 1]	8.15 ± 0.59	5.81 ± 1.16	6.04 ± 0.68	binding level to Bcl-xL protein in SPR (Bcl-xL protein): almost no binding
CC(=O)O.Cc1cc2c(C(C)C)c(O)c(O)c(C=O)c2c(O)c1-c1c(C)cc2c(C(C)C)c(O)c(O)c(C=O)c2c1O [(–)-gossypol]				competitive displacement of fluorescent 20-mer [2]: capable of freeing out fluorescent 20mer
COc1ccc2nc3cc(Cl)ccc3c(-c3ccc(NC(=O)OC(C)(C)C)cc3)c2c1 [Compound 16]	36 ± 14	38.7 ± 20.4	45 ± 20.2	
COc1ccc(CCNc2ncnc3ccccc23)cc1OC [Compound 3]	> 100	82.7 ± 7.99		IC50 [1]: > 100 µM; binding level to Bcl-xL protein in SPR (Bcl-xL protein): almost no binding
COc1ccc2nc3cc(Cl)ccc3c(-c3ccc(N)cc3)c2c1 [Compound 17]	53 ± 14.7	> 100	29.5 ± 28.4	
CCCc1nc2c(C)cc(-c3nc4ccccc4n3C)cc2n1Cc1ccc(-c2ccccc2C(=O)O)cc1 [Compound A16]				Primary Screen mP (Bcl-xL-Beclin 1 complex [3]): 125.4 mP; inhibition at 40 µM (Bcl-xL-Beclin 1 complex [3]): 5.2%; inhibition at 5 µM (Bcl-xL-Beclin 1 complex [4]; 5 μM, read-out: Dose-response (% Inhibition) 5 μM): -1.1%; inhibition at 10 µM (Bcl-xL-Beclin 1 complex [4]; 10 μM, read-out: Dose-response (% Inhibition) 10 μM): -0.6%; inhibition at 20 µM (Bcl-xL-Beclin 1 complex [4]; 20 μM, read-out: Dose-response (% Inhibition) 20 μM): -0.1%; inhibition at 40 µM (Bcl-xL-Beclin 1 complex [4]; 40 μM, read-out: Dose-response (% Inhibition) 40 μM): 1.6%; inhibition at 80 µM (Bcl-xL-Beclin 1 complex [4]; 80 μM, read-out: Dose-response (% Inhibition) 80 μM): 6.3%; inhibition at 160 µM (Bcl-xL-Beclin 1 complex [4]; 160 μM, read-out: Dose-response (% Inhibition) 160 μM): 11.1%
COc1ccc2nc3cc(Cl)ccc3c(NCCOCCO)c2c1 [Compound 8]	3.68 ± 0.55	1.64 ± 0.78	1.42 ± 0.73	
COc1ccc2nc3cc(Cl)ccc3c(-c3ccc(F)cc3)c2c1 [Compound 15]	> 100	> 100	> 100	IC50 [1]: > 100 µM; binding level to Bcl-xL protein in SPR (Bcl-xL protein): almost no binding
